From US20100305121A1, “NOVEL ANTAGONISTS OF THE HUMAN FATTY ACID SYNTHASE THIOESTERASE” (priority 2006, published 2010)

Key:
human FAS TE [1] = target: T1, human FAS TE (Homo sapiens, UniProt P49327); assay: Fluorogenic 4-MUH screening assay of recombinant FAS TE (primary and secondary screen); assay type: biochemical
T1 construct: Expression of the recombinant thioesterase domain of FAS using pTrcHis-TOPO vector (Invitrogen) was as described in Kridel et al. (2004); His tag (from pTrcHis-TOPO vector)
T1 sequence (P49327 2207-2511 limits assumed): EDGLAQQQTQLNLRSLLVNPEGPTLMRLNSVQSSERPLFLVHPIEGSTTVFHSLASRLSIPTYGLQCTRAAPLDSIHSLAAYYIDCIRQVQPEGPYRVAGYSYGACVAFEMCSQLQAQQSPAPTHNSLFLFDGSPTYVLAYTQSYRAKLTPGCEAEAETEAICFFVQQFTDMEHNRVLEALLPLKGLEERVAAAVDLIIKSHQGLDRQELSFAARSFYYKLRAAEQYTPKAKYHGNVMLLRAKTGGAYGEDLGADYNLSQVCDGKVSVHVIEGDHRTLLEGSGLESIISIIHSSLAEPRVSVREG

FAS holoenzyme [2] = target: T2, FAS holoenzyme (Homo sapiens, UniProt P49327); assay: Activity-based probe FP-BODIPY labeling of FAS TE active site in MDA-MB-435 cell lysates; assay type: binding; details: MB-MDA-435 cell lysates, 50 nM probe
T2 construct: Fatty acid synthesis by the FAS holoenzyme in cell lysates was measured by incorporation of; endogenous in cells; host or cells: MDA-MB-435 cell lysate
T2 sequence (P49327 2-2511 limits assumed): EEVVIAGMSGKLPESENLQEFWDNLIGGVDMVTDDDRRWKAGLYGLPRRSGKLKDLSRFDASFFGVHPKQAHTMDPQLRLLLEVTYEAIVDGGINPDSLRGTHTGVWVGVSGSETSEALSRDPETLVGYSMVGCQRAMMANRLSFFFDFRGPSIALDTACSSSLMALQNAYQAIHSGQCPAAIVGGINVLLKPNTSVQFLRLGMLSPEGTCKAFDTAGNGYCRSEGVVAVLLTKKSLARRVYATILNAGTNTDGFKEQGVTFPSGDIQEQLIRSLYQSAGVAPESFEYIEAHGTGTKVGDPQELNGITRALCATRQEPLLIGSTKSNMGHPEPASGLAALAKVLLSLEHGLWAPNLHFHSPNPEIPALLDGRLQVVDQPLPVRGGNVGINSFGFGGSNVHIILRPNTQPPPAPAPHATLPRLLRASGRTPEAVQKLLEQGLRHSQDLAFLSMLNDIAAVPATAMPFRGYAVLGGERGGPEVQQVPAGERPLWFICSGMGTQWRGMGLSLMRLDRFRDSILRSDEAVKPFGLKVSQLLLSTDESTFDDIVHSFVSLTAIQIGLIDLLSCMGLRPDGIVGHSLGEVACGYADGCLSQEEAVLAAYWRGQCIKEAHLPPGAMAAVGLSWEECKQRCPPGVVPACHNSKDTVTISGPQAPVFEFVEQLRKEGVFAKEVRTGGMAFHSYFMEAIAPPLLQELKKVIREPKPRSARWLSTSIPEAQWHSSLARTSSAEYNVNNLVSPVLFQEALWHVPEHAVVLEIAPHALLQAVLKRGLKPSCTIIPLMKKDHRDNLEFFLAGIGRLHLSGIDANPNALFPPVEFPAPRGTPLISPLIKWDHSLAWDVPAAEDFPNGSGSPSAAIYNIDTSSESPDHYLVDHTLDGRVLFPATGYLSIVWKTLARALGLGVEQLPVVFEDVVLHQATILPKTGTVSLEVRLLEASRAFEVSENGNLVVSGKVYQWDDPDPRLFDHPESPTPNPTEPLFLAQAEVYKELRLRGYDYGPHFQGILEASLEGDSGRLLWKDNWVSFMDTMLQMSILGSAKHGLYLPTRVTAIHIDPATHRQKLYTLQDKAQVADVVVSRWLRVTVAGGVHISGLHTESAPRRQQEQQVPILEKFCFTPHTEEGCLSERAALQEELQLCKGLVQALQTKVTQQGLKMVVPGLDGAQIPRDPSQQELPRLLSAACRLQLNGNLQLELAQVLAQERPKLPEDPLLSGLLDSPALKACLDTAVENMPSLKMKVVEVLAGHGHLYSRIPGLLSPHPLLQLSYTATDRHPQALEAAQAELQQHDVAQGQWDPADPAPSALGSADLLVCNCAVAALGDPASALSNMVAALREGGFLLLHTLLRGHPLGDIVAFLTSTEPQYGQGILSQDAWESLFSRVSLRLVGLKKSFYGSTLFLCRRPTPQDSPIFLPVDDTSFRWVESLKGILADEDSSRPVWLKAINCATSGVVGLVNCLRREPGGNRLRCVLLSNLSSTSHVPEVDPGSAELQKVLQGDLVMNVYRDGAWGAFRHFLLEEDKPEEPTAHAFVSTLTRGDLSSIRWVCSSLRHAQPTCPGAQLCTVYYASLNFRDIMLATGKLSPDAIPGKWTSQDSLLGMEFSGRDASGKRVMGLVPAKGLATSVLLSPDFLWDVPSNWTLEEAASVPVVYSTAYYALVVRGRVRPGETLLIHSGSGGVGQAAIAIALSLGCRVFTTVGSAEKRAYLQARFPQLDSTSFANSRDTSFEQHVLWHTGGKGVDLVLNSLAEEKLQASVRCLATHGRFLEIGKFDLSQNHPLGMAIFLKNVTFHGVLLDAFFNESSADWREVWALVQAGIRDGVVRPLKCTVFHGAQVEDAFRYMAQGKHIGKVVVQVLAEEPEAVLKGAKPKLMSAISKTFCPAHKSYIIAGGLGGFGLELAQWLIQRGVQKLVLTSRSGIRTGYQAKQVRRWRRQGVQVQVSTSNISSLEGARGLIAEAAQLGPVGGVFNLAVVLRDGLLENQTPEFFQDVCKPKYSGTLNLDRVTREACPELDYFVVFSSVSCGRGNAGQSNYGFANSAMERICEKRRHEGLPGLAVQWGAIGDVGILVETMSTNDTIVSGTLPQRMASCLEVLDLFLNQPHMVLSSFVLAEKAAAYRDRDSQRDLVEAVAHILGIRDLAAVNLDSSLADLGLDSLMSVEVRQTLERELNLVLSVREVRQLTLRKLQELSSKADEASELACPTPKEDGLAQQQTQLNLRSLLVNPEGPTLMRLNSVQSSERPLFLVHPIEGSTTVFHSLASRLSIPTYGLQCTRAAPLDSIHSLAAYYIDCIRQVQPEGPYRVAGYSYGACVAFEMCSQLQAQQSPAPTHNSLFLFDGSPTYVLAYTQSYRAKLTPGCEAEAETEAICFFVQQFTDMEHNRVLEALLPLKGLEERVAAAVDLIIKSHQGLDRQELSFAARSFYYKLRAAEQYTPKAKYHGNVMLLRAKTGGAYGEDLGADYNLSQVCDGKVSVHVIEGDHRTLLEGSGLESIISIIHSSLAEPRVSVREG

[3] = tested on: MDA-MB-435 breast carcinoma cells; assay: Cytotoxicity, MTS assay; details: read-out: Cytotoxicity IC50, MDA-MB-435 cells, 48 hours
Cytotoxicity, MTS assay = details: human, MDA-MB-435 breast carcinoma cells, Cytotoxicity IC50 (μM), MDA-MB-435 cells
human FAS TE [4] = target: T1, human FAS TE; assay: Kinetic characterization of inhibitors, 4-MUH turnover by FAS TE; assay type: biochemical
FAS holoenzyme [5] = target: T2, FAS holoenzyme; assay: Fatty acid synthesis in vitro, [14C] malonyl-CoA incorporation in MDA-MB-435 cell lysates; assay type: biochemical; details: for effect on fatty acid biosynthesis in cell lysates: 6.3 to 50 μM

O=C1NC(=O)C(=Cc2ccc(-c3ccccc3C(=O)O)o2)C(=O)N1 [RDR317 (6), 2-(5-((2,4,6-trioxotetrahydropyrimidin-5(6H)-ylidene)methyl)furan-2-yl)benzoic acid]
IC50 (human FAS TE [1]): 29 µM

O=C1NC(=O)C(=Cc2ccc(-c3cc([N+](=O)[O-])ccc3O)o2)C(=O)N1 [RDR256 (5), 5-((5-(2-hydroxy-5-nitrophenyl)furan-2-yl)methylene)pyrimidine-2,4,6(1H,3H,5H)-trione]
IC50 (human FAS TE [1]): 9.2 µM

CN(C)c1ccc(C/C=C2/C(=O)NC(=S)N(c3ccccc3F)C2=O)cc1 [RDR057 (10), (Z)-5-(2-(4-(dimethylamino)phenyl)ethylidene)-1-(2-fluorophenyl)-2-thioxodihydropyrimidine-4,6(1H,5H)-dione]
IC50 (human FAS TE [1]): 4.3 µM

Cc1cccc(N2C(=O)NC(=O)/C(=C/Nc3ccccc3C)C2=O)c1 [RDR564 (12), (Z)-1-m-tolyl-5-((o-tolylamino)methylene)pyrimidine-2,4,6(1H,3H,5H)-trione]
IC50 (human FAS TE [1]): 105 µM

CCOc1ccc(C/C=C2/C(=O)NC(=O)N(c3ccc(OCC)cc3)C2=O)cc1 [RDR506 (11), (Z)-1-(4-ethoxyphenyl)-5-(2-(4-ethoxyphenyl)ethylidene)pyrimidine-2,4,6(1H,3H,5H)-trione]
IC50 (human FAS TE [1]): 14.5 µM

COc1ccc(-c2ccc(C=C3C(=O)NC(=S)NC3=O)o2)c([N+](=O)[O-])c1 [RDR924 (3), 5-((5-(4-methoxy-2-nitrophenyl)furan-2-yl)methylene)-2-thioxodihydropyrimidine-4,6(1H,5H)-dione]
IC50 (human FAS TE [1]): 4.4 µM
concentration of complete inhibition of FP-BODIPY binding (FAS holoenzyme [2]): approximately 50 μM

COc1cccc(N2C(=O)NC(=O)/C(=C/C/C=C/c3ccccc3[N+](=O)[O-])C2=O)c1 [RDR203 (9), (Z)-1-(3-methoxyphenyl)-5-((E)-4-(2-nitrophenyl)but-3-enylidene)pyrimidine-2,4,6(1H,3H,5H)-trione]
IC50 (human FAS TE [1]): 2 µM

O=C1NC(=S)NC(=O)C1=Cc1ccc(-c2ccc(C(=O)O)cc2)o1 [RDR423 (4), 4-(5-((4,6-dioxo-2-thioxotetrahydropyrimidin-5(6H)-ylidene)methyl)furan-2-yl)benzoic acid]
IC50 (human FAS TE [1]): 5.3 µM

COc1ccc(N2C(=O)NC(=O)/C(=C/C/C=C/c3ccccc3)C2=O)c(OC)c1 [RDR755 (7), (Z)-1-(2,4-dimethoxyphenyl)-5-((E)-4-phenylbut-3-enylidene)pyrimidine-2,4,6(1H,3H,5H)-trione]
IC50 [3]: 1.61 µM
IC50 at 48 h (Cytotoxicity, MTS assay): 1.6 µM
Ki (human FAS TE [4]): 0.12 µM
type of inhibition of FAS TE (double reciprocal plots) (human FAS TE [4]): non-competitive inhibitors

O=C1NC(=O)N(c2ccccc2)C(=O)/C1=C\C/C=C/c1ccccc1[N+](=O)[O-] [RDR914 (8), (Z)-5-((E)-4-(2-nitrophenyl)but-3-enylidene)-1 - phenylpyrimidine-2,4,6(1H,3H,5H)-trione]
IC50 (human FAS TE [1]): 1.5 µM
IC50 [3]: 9.53 µM
IC50 at 48 h (Cytotoxicity, MTS assay): 9.5 µM

CN1C(=O)NC(=O)/C(=C/c2ccc(-c3ccc([N+](=O)[O-])cc3Br)o2)C1=O [RDR102 (2), (Z)-5-((5-(2-bromo-4-nitrophenyl)furan-2-yl)methylene)-1-methylpyrimidine-2,4,6(1H,3H,5H)-trione]
IC50 (FAS holoenzyme [5]): ~20 µM
effect on fatty acid biosynthesis in cell lysates (FAS holoenzyme [5]): completely abrogated fatty acid biosynthesis
IC50 at 48 h (Cytotoxicity, MTS assay): 14.2 µM
Ki (human FAS TE [4]): 0.1 µM
concentration of complete inhibition of FP-BODIPY binding (FAS holoenzyme [2]): approximately 50 μM

Cc1ccc(Br)c(-c2ccc(C=C3C(=O)NC(=S)NC3=O)o2)c1 [RDR019 (1), 5-((5-(2-bromo-5-methylphenyl)furan-2-yl)methylene)-2-thioxodihydropyrimidine-4,6(1H,5H)-dionc]
IC50 (FAS holoenzyme [5]): ~20 µM
effect on fatty acid biosynthesis in cell lysates (FAS holoenzyme [5]): completely abrogated fatty acid biosynthesis
IC50 at 48 h (Cytotoxicity, MTS assay): 20.6 µM
Ki (human FAS TE [4]): 0.11 µM
partial versus pure non-competitive inhibition (Km/Vmax(i) versus [I]) (human FAS TE [4]): partial non-competitive inhibitor
type of inhibition of FAS TE (double reciprocal plots) (human FAS TE [4]): non-competitive inhibitors
